Like-named read-outs stand apart in the source and are kept apart here.

In one data set the target is T1, MRP1 (Homo sapiens, UniProt P33527).
T1 construct: expressed in transfected cells; host or cells: 2008/MRP1 (human ovarian cancer)
The data set can be described thus: MRP1-modulating activity in 2008/MRP1 cells (MTS). The class given is cell-based. On the procedure:
The final volume in each well of the 96-well plate was 200 μL. The plate was then incubated for 5 days at 37 °C. The cell viability was determined using an MTS assay as reported previously.

The next data set addresses T2, CYP2C8 (Homo sapiens, UniProt P10632).
T2 construct: tissue Research Institute for Liver Diseases (Shanghai); host or cells: 50-donor pooled human liver microsomes
T2 sequence (P10632 1-490): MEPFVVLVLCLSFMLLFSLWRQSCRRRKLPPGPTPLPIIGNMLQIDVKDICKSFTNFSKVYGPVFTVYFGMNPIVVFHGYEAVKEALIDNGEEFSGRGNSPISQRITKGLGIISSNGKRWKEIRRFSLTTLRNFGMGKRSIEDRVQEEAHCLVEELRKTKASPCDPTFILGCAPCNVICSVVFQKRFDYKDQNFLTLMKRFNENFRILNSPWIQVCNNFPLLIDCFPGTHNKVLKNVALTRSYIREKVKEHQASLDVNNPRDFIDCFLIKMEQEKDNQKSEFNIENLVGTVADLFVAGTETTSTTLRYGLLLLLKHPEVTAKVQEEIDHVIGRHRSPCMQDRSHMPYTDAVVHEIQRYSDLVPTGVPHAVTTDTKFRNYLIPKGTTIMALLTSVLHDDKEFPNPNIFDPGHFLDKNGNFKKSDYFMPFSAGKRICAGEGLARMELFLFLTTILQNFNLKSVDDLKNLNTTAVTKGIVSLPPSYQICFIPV
Briefly: PTX metabolism in human liver microsomes: 6α-OHP formation. It is filed as in vitro ADME. As to conditions: HLM. On the procedure: (§1) Figure 7 Mechanistic study of FM04 to increase the oral PTX absorption. (A) transepithelial permeability of PTX in Caco-2 transwell assay. When confluent monolayer of Caco2 cells was formed on the transwell, the permeability of PTX (10 μM) was studied with or without FM04 (10 μM). For apical to basolateral transport (A to B), compound was added at the apical side (donor) and samples of the medium collected at the basal side (receiver) at 0, 20, 40, 60, 80, 100 and 120 min and vice versa for basal to apical transport (B to A). The PTX level was determined using UPLC-MS/MS. The relative % of PTX was presented as mean ± standard error of mean. N = 2–3 independent experiments. Impact of FM04 on PTX metabolism. […] After incubation, the levels of PTX, metabolites 6α-hydroxpaclitaxel (6α-OHP) and p3′-hydroxpaclitaxel (p3-OHP) were determined by HPLC-MS/MS. (B) changes in PTX. (C) changes in 6α-OHP. (D) changes in p3-OHP. […]
(§2) Drug solutions of PTX and FM04 were prepared in methanol. […] PTX and PTX metabolites were immediately analyzed by UPLC-MS/MS on the same day.
(§3) [^13C6]-paclitaxel (CAS: 379688-61-6) was the internal standard (IS) and purchased from Alsachim. Fifteen microliters of 10 μg/mL internal standard (IS) was added to all samples and calibration standards for quantification. […] PTX and both metabolites were semi-quantified base on the peak area ratio of the analyte/internal standard.
On the technique in general: Liver microsomes are a subcellular fraction often used to study metabolism.

The target in data set [1] is T3, P-gp (Homo sapiens, UniProt P08183). The data set can be described thus: Intracellular FM04 level in LCC6MDR and LCC6 cells (P-gp transport substrate test). It is filed as cell-based. On the set-up: expressed in transfected cells; host or cells: MDA435/LCC6MDR (human melanoma). The following applies: 1-10 µM, LCC6MDR vs LCC6. The procedure: N = 2–3 independent experiments. […] After incubation, the cells were lysed and spun down. […] N = 2–6 independent experiments. […] A 1% DMSO was a solvent control. […] N = 2–3 independent experiments.
T3 sequence (P08183 whole entry): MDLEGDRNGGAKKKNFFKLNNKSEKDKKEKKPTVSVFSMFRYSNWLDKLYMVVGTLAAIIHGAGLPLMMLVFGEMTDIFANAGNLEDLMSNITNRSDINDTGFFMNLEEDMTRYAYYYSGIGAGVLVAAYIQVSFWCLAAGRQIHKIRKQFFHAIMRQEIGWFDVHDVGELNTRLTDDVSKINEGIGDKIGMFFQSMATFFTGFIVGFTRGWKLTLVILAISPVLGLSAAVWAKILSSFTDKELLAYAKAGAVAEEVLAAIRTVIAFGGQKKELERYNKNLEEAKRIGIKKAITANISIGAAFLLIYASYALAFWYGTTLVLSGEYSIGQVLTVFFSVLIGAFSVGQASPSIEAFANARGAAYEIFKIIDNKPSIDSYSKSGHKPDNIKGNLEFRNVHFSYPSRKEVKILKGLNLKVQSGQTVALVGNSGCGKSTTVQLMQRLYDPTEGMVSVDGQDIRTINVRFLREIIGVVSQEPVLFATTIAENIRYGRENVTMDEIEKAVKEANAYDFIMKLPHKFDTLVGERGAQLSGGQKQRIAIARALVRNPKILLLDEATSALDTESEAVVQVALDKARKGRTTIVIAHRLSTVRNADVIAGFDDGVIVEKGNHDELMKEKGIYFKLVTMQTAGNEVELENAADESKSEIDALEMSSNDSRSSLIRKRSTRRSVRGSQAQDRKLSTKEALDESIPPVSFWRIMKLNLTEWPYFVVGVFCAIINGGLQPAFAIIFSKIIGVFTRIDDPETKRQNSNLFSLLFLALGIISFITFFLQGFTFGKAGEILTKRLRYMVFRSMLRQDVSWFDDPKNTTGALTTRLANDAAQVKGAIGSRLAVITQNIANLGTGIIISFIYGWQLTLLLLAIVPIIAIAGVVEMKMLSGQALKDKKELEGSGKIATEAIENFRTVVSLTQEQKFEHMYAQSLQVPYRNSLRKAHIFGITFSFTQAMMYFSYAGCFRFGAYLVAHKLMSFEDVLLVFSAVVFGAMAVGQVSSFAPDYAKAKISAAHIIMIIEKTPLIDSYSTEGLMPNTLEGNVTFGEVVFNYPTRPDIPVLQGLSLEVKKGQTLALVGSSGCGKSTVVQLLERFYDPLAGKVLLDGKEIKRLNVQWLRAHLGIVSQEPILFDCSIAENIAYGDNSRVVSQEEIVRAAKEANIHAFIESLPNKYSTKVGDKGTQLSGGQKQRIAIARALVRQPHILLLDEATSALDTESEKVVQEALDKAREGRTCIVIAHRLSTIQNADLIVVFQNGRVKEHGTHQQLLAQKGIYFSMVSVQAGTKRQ
P-gp is a transporter with broad substrate specificity. To explore whether FM04 can be pumped by P-gp and work as a competitive inhibitor to prevent the drug substrate from binding, the following experiment was performed. The intracellular level of FM04 was compared in P-gp overexpressing LCC6MDR cells and non-P-gp parental LCC6 cells after its treatment.

Data set [2] addresses T3, P-gp. Briefly: Intracellular DOX accumulation assay in LCC6MDR cells.
The target of a further data set is T4, CYP3A4 (Homo sapiens, UniProt P08684).
T4 construct: tissue Research Institute for Liver Diseases (Shanghai); host or cells: 50-donor pooled human liver microsomes
T4 sequence (P08684 whole entry): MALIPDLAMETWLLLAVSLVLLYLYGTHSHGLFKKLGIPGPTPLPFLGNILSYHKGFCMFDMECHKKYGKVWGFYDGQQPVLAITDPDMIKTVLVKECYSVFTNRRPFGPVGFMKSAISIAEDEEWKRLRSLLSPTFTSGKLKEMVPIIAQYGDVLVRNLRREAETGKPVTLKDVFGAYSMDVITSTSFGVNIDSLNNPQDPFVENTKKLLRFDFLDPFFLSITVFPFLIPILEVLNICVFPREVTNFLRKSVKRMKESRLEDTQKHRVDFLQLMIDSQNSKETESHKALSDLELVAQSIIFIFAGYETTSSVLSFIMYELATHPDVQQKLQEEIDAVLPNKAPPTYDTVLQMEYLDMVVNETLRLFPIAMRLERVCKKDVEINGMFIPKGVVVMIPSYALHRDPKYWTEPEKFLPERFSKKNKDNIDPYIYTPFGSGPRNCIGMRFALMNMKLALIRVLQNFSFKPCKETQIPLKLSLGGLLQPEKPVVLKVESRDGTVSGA
Briefly: PTX metabolism in human liver microsomes: p3-OHP formation. The class given is in vitro ADME. The following applies: HLM. The procedure:
N = 2–3 independent experiments. […] N = 2–3 independent experiments.
Source parameters were as follows, gas temp (350 °C), gas flow (8 L/min), nebulizer (35 psi) and capillary (4000 V). […] Milli-Q with 0.1% formic acid was used as the aqueous phase.

Details of data set [3]: method as in PMID 23090875. As to conditions: oral PTX 10 mg/kg, cited from earlier work.
In a further data set the test system is CYP2C8 and CYP3A4. The data set can be described thus: PTX metabolism in human liver microsomes: PTX level. It is filed as in vitro ADME. The following applies: HLM; in the presence of NADPH, no inhibitor. On the procedure: as §1, §2, §3

T1 sequence (P33527 whole entry): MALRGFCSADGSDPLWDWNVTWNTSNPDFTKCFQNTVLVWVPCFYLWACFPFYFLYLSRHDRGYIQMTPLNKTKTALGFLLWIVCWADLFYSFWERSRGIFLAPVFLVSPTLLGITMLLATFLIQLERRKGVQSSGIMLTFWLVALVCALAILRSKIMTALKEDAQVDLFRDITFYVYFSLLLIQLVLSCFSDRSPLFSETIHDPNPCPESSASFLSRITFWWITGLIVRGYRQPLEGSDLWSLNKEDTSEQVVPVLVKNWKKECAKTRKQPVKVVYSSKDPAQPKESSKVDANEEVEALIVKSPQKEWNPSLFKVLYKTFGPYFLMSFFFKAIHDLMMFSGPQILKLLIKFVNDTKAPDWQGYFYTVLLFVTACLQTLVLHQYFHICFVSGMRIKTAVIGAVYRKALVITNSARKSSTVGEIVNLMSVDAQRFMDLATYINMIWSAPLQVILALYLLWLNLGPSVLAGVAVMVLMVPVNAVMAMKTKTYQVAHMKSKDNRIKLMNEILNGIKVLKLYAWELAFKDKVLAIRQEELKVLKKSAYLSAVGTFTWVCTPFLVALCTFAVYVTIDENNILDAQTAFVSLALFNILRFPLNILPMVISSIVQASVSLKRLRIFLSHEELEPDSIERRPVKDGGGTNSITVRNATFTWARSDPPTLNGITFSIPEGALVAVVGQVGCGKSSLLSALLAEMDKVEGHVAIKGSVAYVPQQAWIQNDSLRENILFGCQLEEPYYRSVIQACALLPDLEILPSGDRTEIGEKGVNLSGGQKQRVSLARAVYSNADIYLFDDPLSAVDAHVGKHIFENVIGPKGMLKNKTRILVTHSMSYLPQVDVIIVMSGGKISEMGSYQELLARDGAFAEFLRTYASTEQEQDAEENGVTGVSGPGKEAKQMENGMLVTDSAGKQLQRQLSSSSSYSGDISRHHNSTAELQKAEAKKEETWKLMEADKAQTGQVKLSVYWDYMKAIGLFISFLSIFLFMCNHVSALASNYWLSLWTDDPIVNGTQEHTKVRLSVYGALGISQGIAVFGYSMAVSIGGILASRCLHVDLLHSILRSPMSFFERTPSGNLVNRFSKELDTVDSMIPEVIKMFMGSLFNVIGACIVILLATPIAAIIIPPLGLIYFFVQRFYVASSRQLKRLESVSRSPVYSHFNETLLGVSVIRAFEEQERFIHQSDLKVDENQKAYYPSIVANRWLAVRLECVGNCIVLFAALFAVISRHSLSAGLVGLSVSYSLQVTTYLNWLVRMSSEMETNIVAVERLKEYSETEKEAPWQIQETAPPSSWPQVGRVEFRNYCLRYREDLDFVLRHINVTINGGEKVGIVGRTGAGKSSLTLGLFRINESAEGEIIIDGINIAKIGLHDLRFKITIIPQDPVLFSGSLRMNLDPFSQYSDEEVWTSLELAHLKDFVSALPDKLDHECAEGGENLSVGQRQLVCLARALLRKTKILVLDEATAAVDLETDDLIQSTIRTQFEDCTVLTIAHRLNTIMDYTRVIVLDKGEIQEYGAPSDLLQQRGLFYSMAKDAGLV

For `O=c1cc(-c2ccc(OCCOCCNCc3ccccc3)cc2)oc2ccccc12` [FM04, 2-(4-(2-(2-(benzylamino)ethoxy)ethoxy)phenyl)-4H-chromen-4-one], at MRP1 (1 μM, 2008/MRP1), the “reversal of MRP1-mediated DOX resistance” value is recorded as “did not reverse”. For the same compound, on MRP1 (IC50 without modulator / IC50 with 1 µM modulator), the “RF, DOX in 2008/MRP1” value came out at 1.2. The “decrease of the level of 6α-OHP” value on CYP2C8 (FM04 10 μM) is 44%; on CYP2C8 (FM04 20 μM) it was 48%. Moreover, the “Transport substrate of P-gp” value on P-gp [1] is reported as “not a transport substrate of P-gp”. Further, the half-maximal effective concentration (EC50) (usually the concentration giving half of the maximal effect) at P-gp [2] came to 64 nM. The “reduction in p3-OHP” value on CYP3A4 (FM04 10 μM) is 42%; on CYP3A4 (FM04 20 μM), 51%.

In the case of `CC(=O)O[C@H]1C(=O)[C@@]2(C)[C@H]([C@H](OC(=O)c3ccccc3)[C@]3(O)C[C@H](OC(=O)[C@H](O)[C@@H](NC(=O)c4ccccc4)c4ccccc4)C(C)=C1C3(C)C)[C@]1(OC(C)=O)CO[C@@H]1C[C@@H]2O` [PTX, paclitaxel], the “fold increase of oral plasma AUC of PTX relative to wild type mice” value in data set [3] (Cyp3a KO (Cyp3a−/−) mice) is given as 1.5 fold; in data set [3] (P-gp KO (Mdr1a/b−/−) mice) it was 12.4 fold; in data set [3] (combined P-gp and Cyp3a KO mice) it was 27.6 fold. For the same compound, in the data set on CYP2C8 and CYP3A4, the “reduction of PTX level” value stood at 50%.

Values taken from article PMC9739180, “Discovery of a Flavonoid FM04 as a Potent Inhibitor to Reverse P-Glycoprotein-Mediated Drug Resistance in Xenografts and Improve Oral Bioavailability of Paclitaxel” (International Journal of Molecular Sciences, 2022).
